Laboratory results taken from the supplement of paper PMC4862054.

How the values were obtained:
Settings in all cases: incubation time: 72 h
BT-549 [1] = experiment: normalised viability (% of control), CellTiter-Blue; higher = more viable cells (100 = DMSO, 0 = benzethonium chloride kill control)
Method: (§1)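 DSRT, CellTiter-Blue viability, 72 h incubation. Signal is normalised to DMSO and benzethonium chloride controls. Value is the normalised response at dose 1.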

MDA-MB-453 [2] = experiment: as above
Method: as §1

CAL-120 [3] = experiment: as above
Method: as §1

HCC1143 [4] = experiment: as above
Method: as §1

SK-BR-3 [5] = experiment: as above
Method: as §1

Hs578T [6] = experiment: as above
Method: as §1

MDA-MB-468 [7] = experiment: as above
Method: as §1

CAL-148 [8] = experiment: as above
Method: as §1

HCC1937 [9] = experiment: as above
Method: as §1

HCC1599 [10] = experiment: as above
Method: as §1

DU-4475 [11] = experiment: as above
Method: as §1

CAL-85-1 [12] = experiment: as above
Method: as §1

BT-474 [13] = experiment: as above
Method: as §1

CAL-51 [14] = experiment: as above
Method: as §1

MDA-MB-231 [15] = experiment: as above
Method: as §1

HDQ-P1 [16] = experiment: as above
Method: as §1

MFM-223 [17] = experiment: as above
Method: as §1

MDA-MB-436 [18] = experiment: as above
Method: as §1

BT-549 [19] = experiment: normalised response (% of control), CellTiter-Glo; higher = more viable cells (100 = DMSO, 0 = benzethonium chloride kill control)
Outline: (§2)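 Breast cancer cell lines were exposed for 72 h in 384-well plates to compound at 5 concentrations, 10-fold apart, covering a 10,000-fold range fixed for each compound. Plates were read for CellTox Green fluorescence and CellTiter-Glo luminescence and normalised to 0.1 % DMSO (100) and a positive kill control (0). Each value is the normalised signal at one concentration of the series.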

MDA-MB-453 [20] = experiment: as above
Outline: as §2

CAL-120 [21] = experiment: as above
Outline: as §2

HCC1143 [22] = experiment: as above
Outline: as §2

MCF-10A = experiment: as above
Outline: as §2

SK-BR-3 [23] = experiment: as above
Outline: as §2

Hs578T [24] = experiment: as above
Outline: as §2

MDA-MB-468 [25] = experiment: as above
Outline: as §2

CAL-148 [26] = experiment: as above
Outline: as §2

HCC1937 [27] = experiment: as above
Outline: as §2

HCC1599 [28] = experiment: as above
Outline: as §2

DU-4475 [29] = experiment: as above
Outline: as §2

CAL-85-1 [30] = experiment: as above
Outline: as §2

BT-474 [31] = experiment: as above
Outline: as §2

CAL-51 [32] = experiment: as above
Outline: as §2

MDA-MB-231 [33] = experiment: as above
Outline: as §2

HDQ-P1 [34] = experiment: as above
Outline: as §2

MFM-223 [35] = experiment: as above
Outline: as §2

MDA-MB-436 [36] = experiment: as above
Outline: as §2

Row | SMILES | normalised viability (BT-549 [1]) | normalised viability (MDA-MB-453 [2]) | normalised viability (CAL-120 [3]) | normalised viability (HCC1143 [4]) | normalised viability (SK-BR-3 [5]) | normalised viability (Hs578T [6]) | normalised viability (MDA-MB-468 [7]) | normalised viability (CAL-148 [8]) | normalised viability (HCC1937 [9]) | normalised viability (HCC1599 [10]) | normalised viability (DU-4475 [11]) | normalised viability (CAL-85-1 [12]) | normalised viability (BT-474 [13]) | normalised viability (CAL-51 [14]) | normalised viability (MDA-MB-231 [15]) | normalised viability (HDQ-P1 [16]) | normalised viability (MFM-223 [17]) | normalised viability (MDA-MB-436 [18]) | normalised response (BT-549 [19]) | normalised response (MDA-MB-453 [20]) | normalised response (CAL-120 [21]) | normalised response (HCC1143 [22]) | normalised response (MCF-10A) | normalised response (SK-BR-3 [23]) | normalised response (Hs578T [24]) | normalised response (MDA-MB-468 [25]) | normalised response (CAL-148 [26]) | normalised response (HCC1937 [27]) | normalised response (HCC1599 [28]) | normalised response (DU-4475 [29]) | normalised response (CAL-85-1 [30]) | normalised response (BT-474 [31]) | normalised response (CAL-51 [32]) | normalised response (MDA-MB-231 [33]) | normalised response (HDQ-P1 [34]) | normalised response (MFM-223 [35]) | normalised response (MDA-MB-436 [36])
1 | O=c1[nH]cc(F)c(=O)[nH]1 [Fluorouracil] (1 nM) | 114% | 115% | 103% | 102% | 103% | 122% | 113% | 109% | 90.6% | 80.1% | 107% | 106% | 107% | 100% | 112% | 110% | 106% | 94.8% | 107% | 110% | 108% | 102% | 113% | 108% | 106% | 97.2% | 105% | 95.1% | 95.8% | 100% | 105% | 99.5% | 124% | 106% | 105% | 110% | 119%
2 | COc1ncc(-c2ccc3nccc(-c4ccnnc4)c3c2)cc1NS(=O)(=O)c1ccc(F)cc1F (0.1 nM) | 108% | 94.3% | 81% | 89.1% | 86.9% | 112% | 101% | 99.6% | 100% | 83.8% | 108% | 90.2% | 115% | 93.7% | 92% | 103% | 91.4% | 113% | 101% | 125% | 98.4% | 106% | 120% | 108% | 103% | 100% | 97.9% | 98.2% | 92.1% | 99.8% | 98.1% | 101% | 112% | 104% | 99.8% | 111% | 97.7%
3 | Cn1c(=O)c(F)c(Nc2ccc(I)cc2F)c2c(=O)n(C[C@@H](O)CO)cnc21 [TAK-733] (0.1 nM) | 101% | 111% | 87.1% | 101% | 97.9% | 128% | 95.8% | 105% | 88.7% | 73.2% | 112% | 90.7% | 68.7% | 101% | 105% | 120% | 99.9% | 105% | 91.8% | 115% | 98% | 102% | 114% | 111% | 101% | 102% | 104% | 100% | 94.3% | 99.4% | 96.6% | 103% | 74% | 105% | 97.1% | 108% | 96.2%
4 | CS(=O)(=O)OCCCCOS(C)(=O)=O [Busulfan] (10 nM) | 92.2% | 117% | 112% | 100% | 97% | 92% | 102% | 131% | 78.8% | 105% | 104% | 105% | 82.1% | 88.3% | 112% | 106% | 88.7% | 105% | 103% | 108% | 92.4% | 99.3% | 104% | 111% | 101% | 97.3% | 96% | 95.5% | 84.3% | 106% | 104% | 102% | 87.1% | 99.2% | 95.6% | 102% | 89.5%
5 | COc1cccc2c1C(=O)c1c(O)c3c(c(O)c1C2=O)C[C@@](O)(C(C)=O)C[C@@H]3O[C@H]1C[C@H](N)[C@H](O)[C@H](C)O1 [Daunorubicin] (0.1 nM) | 100% | 107% | 87.8% | 102% | 85.2% | 130% | 100% | 106% | 115% | 101% | 88.2% | 88.7% | 101% | 99.2% | 103% | 98.8% | 97.3% | 99.1% | 106% | 112% | 99% | 103% | 112% | 101% | 107% | 102% | 112% | 95.6% | 104% | 100% | 102% | 108% | 108% | 105% | 104% | 108% | 129%
6 | CC(=O)O[C@H]1C(=O)[C@@]2(C)[C@H]([C@H](OC(=O)c3ccccc3)[C@]3(O)C[C@H](OC(=O)[C@H](O)[C@@H](NC(=O)c4ccccc4)c4ccccc4)C(C)=C1C3(C)C)[C@]1(OC(C)=O)CO[C@@H]1C[C@@H]2O [Paclitaxel] (0.1 nM) | 116% | 97.5% | 90.6% | 106% | 90.2% | 103% | 105% | 106% | 84.3% | 102% | 115% | 98.2% | 82% | 93.8% | 73.8% | 82.6% | 93.9% | 95.8% | 100% | 89.9% | 89.7% | 93.6% | 87.9% | 88.4% | 100% | 95.7% | 89.6% | 90.5% | 100% | 93.8% | 99.2% | 95.5% | 103% | 96.6% | 96.4% | 89.9% | 98.7%
7 | COC(=O)C[C@](O)(CCCC(C)(C)O)C(=O)O[C@@H]1C(OC)=C[C@]23CCCN2CCc2cc4c(cc2[C@H]13)OCO4 [Omacetaxine] (1 nM) | 95.4% | 91.6% | 82% | 91.7% | 97.3% | 106% | 95.2% | 107% | 96.5% | 78.4% | 93.6% | 90.6% | 101% | 96.3% | 97.3% | 84.7% | 90.3% | 91.1% | 92.1% | 121% | 99.8% | 109% | 108% | 108% | 101% | 108% | 110% | 98.3% | 88.4% | 96% | 101% | 106% | 79.9% | 104% | 104% | 103% | 97.1%
8 | COC1=C2C[C@@H](C)C[C@H](OC)[C@H](O)[C@@H](C)/C=C(\C)[C@H](OC(N)=O)[C@@H](OC)/C=C\C=C(/C)C(=O)NC(=CC1=O)C2=O [Geldanamycin] (1 nM) | 96.8% | 108% | 92.6% | 95.3% | 103% | 130% | 103% | 119% | 92.3% | 87.6% | 132% | 94.6% | 112% | 105% | 96% | 124% | 99.9% | 110% | 101% | 127% | 107% | 107% | 105% | 110% | 108% | 109% | 129% | 101% | 101% | 102% | 101% | 105% | 100% | 103% | 101% | 103% | 107%
